Experiment: solvent given as SMILES

Work on `COc1ccc(-c2nc(-c3cccc(C#N)c3)[nH]c2-c2ccc(OC)cc2)cc1` yielded an emission maximum (in CO) of 478 nm.

`Brc1ccc(N(c2ccc(/C=C/c3ccncn3)cc2)c2ccc(/C=C/c3ccncn3)cc2)cc1` gave an emission maximum (in ClCCl) of 555 nm.

`CCN(CC)c1ccc(C2=C3C(C)=CC(/C=C/c4ccc(OCCCN=[N+]=[N-])cc4)=[N+]3[B-](F)(F)n3c(C)cc(C)c32)cc1` showed an emission maximum (in CO) of 587 nm.

With `CCCCCCCCCCn1nnc(-c2ccc(C#Cc3ccc(C#Cc4ccc(-c5nnn(CCCCCCCCCC)n5)cc4)c4nc5c6ccccc6c6ccccc6c5nc34)cc2)n1` the emission maximum (in C1CCOC1) was 495 nm, the emission maximum (in Cc1ccccc1) was 488 nm and the emission maximum (in ClCCl) was 502 nm.

In the case of `N#CC(C#N)=Cc1ccc(-c2cccc(-c3nc4ccccc4s3)c2O)o1`, the emission maximum (in CCO) was 631 nm, the emission maximum (in ClCCl) was 605 nm and the emission maximum (in O) was 635 nm.

Work on `Cc1cc2c(cc1[N+](=O)[O-])NC(=O)CC(=O)N2` yielded an emission maximum (in CS(C)=O) of 350 nm.

`Cc1cc(C)c(C2=C3C=C(/C=C/C(=O)OC(C)(C)C)C=[N+]3[B-](F)(F)n3c2ccc3N2CCCC2)c(C)c1` showed an emission maximum (in ClCCl) of 551 nm.

`O=C(O)CCCCCn1c2ccccc2c(=O)c2cc(Br)ccc21` showed an emission maximum (in O) of 432 nm.

In the case of `CCOC(=O)COc1ccc(C(c2c(C)[nH]c3ccccc23)c2c(C)[nH]c3ccccc23)cc1`, the emission maximum (in C1CCCCC1) was 327 nm, the emission maximum (in CC#N) was 340 nm and the emission maximum (in CO) was 344 nm. The emission maximum (in O) was 350 nm.

`CC(C)c1cccc(C(C)C)c1N1C(=O)c2ccc3c(-c4ccccc4)c4c5ccc6c7c(ccc(c(-c8ccccc8)c4c4ccc(c2c34)C1=O)c75)C(=O)N(c1c(C(C)C)cccc1C(C)C)C6=O` gave an emission maximum (in ClCCl) of 702 nm.

`CCCCCCCCN1C(=O)c2ccc3c4c(-c5ccc6c7ccccc7n(-c7ccccc7)c6c5)cc5c6c(ccc(c7c(-c8ccc9c%10ccccc%10n(-c%10ccccc%10)c9c8)cc(c2c37)C1=O)c64)C(=O)N(CCCCCCCC)C5=O` showed an emission maximum (in ClC(Cl)Cl) of 647 nm.

`N#Cc1ccc(-c2ccc3c(c2)c2cc(-c4ccc(C#N)cc4)ccc2c2c3nc(-c3ccc(-c4ccc(N(c5ccccc5)c5ccccc5)cc4)cc3)n2-c2ccccc2)cc1` showed an emission maximum (in C1CCOC1) of 468.68 nm, an emission maximum (in CC#N) of 519.93 nm and an emission maximum (in CCCCCC) of 421.18 nm. It also gave an emission maximum (in CCOCC) of 449.2 nm.

For `CCCCCCCCn1c2ccccc2c(=O)c2ccccc21`, the emission maximum (in CS(C)=O) was 414 nm.

In the case of `CC1(C)CC(=O)c2c(F)c(F)c(F)c(F)c2N1`, the emission maximum (in CC#N) was 449 nm and the emission maximum (in CCO) was 479 nm.

`CCCN1/C(=C/C=C/C=C/C2=[N+](CCC)c3ccccc3C2(C)C)C(C)(C)c2ccccc21` gave an emission maximum (in CO) of 659 nm, an emission maximum (in CS(C)=O) of 660 nm and an emission maximum (in O) of 652 nm.

In the case of `Oc1ccccc1-c1nc(-c2ccccc2)c2ccccn12`, the emission maximum (in C1CCCCC1) was 479 nm, the emission maximum (in CC#N) was 480 nm and the emission maximum (in CO) was 474 nm. The emission maximum (in ClCCl) was 484 nm and the emission maximum (in O) was 481 nm.

Work on `COC(=O)c1ccc(/C=C2\C=C(c3ccc([N+](=O)[O-])cc3)OC2=O)cc1` yielded an emission maximum (in C1COCCO1) of 493 nm.

In the case of `CCN(CC)c1ccc2cc(/C=C/c3cccc[n+]3CCCS(=O)(=O)[O-])c(=O)oc2c1`, the emission maximum (in C1CCOC1) was 641 nm, the emission maximum (in CC#N) was 634 nm and the emission maximum (in CC(C)=O) was 639 nm. It also gave an emission maximum (in CS(C)=O) of 642 nm, an emission maximum (in Cc1ccccc1) of 641 nm and an emission maximum (in O) of 627 nm. For the same compound, the emission maximum (in OCC(O)CO) was 625 nm.

Work on `N#Cc1cc(-c2cc(C#N)c(-n3c4ccccc4c4ccccc43)cc2-n2c3ccccc3c3ccccc32)c(-n2c3ccccc3c3ccccc32)cc1-n1c2ccccc2c2ccccc21` yielded an emission maximum (in Cc1ccccc1) of 453 nm.

`FC(F)(F)C(F)(F)C(F)(F)C1=NC2=C(Br)C=C3c4cc(Br)c5nc(C(F)(F)C(F)(F)C(F)(F)F)nc6c(Br)cc(c4c56)=C4C=C(Br)C(=N1)C2C34` (configuration not stated) showed an emission maximum (in C1CCOC1) of 486 nm.

`FC(F)(F)c1ccccc1B1c2ccccc2Nc2ccccc21` showed an emission maximum (in ClCCl) of 401 nm.

For `COc1ccc2c(-c3nc(-c4cccc(C)c4)no3)cc(=O)oc2c1`, the emission maximum (in CCO) was 464 nm and the emission maximum (in ClC(Cl)Cl) was 450 nm.

`O=C1/C(=C\c2ccc(N(c3ccccc3)c3ccccc3)cc2)S(=O)(=O)c2ccccc21` gave an emission maximum (in C1CCOC1) of 630 nm, an emission maximum (in C1COCCO1) of 600 nm and an emission maximum (in CC#N) of 518 nm. It also gave an emission maximum (in CC(C)=O) of 540 nm, an emission maximum (in CCOC(C)=O) of 617 nm and an emission maximum (in CN(C)C=O) of 520 nm. For the same compound, the emission maximum (in CO) was 597 nm, the emission maximum (in CS(C)=O) was 553 nm and the emission maximum (in Cc1ccccc1) was 587 nm. The emission maximum (in ClC(Cl)Cl) was 626 nm and the emission maximum (in ClCCl) was 631 nm.

In the case of `COc1ccc2nc(-c3ccccc3)c(=O)oc2c1`, the emission maximum (in c1ccccc1) was 448 nm.

Work on `c1ccc([B-]2(c3ccccc3)Oc3ccc4ccccc4c3-c3c4ccccc4nc[n+]32)cc1` yielded an emission maximum (in Cc1ccccc1) of 543 nm.

For `CCN(CC)c1ccc2cc3c([o+]c2c1)/C(=C/Nc1ccccc1)CCC3`, the emission maximum (in CCO) was 647 nm, the emission maximum (in ClC(Cl)Cl) was 642 nm and the emission maximum (in ClCCl) was 647 nm.

In the case of `c1ccc(-c2nc(-c3ccccc3)nc(-c3ccc(-n4c5ccccc5c5ccc6c7ccccc7n(-c7ccccc7)c6c54)cc3)n2)cc1`, the emission maximum (in Cc1ccccc1) was 459 nm and the emission maximum (in O=P(c1ccccc1)(c1ccccc1)c1ccc2oc3ccc(P(=O)(c4ccccc4)c4ccccc4)cc3c2c1) was 477 nm.

`C(#Cc1ccncc1)C(C#Cc1ccncc1)=Cc1ccc(C=C(C#Cc2ccncc2)C#Cc2ccncc2)s1` gave an emission maximum (in ClC(Cl)Cl) of 587 nm.

With `COc1cc2c(cc1-c1cccs1)Cc1c3c(c4c(c1-2)-c1cc(OC)c(-c2cccs2)cc1C4)C(=O)N(CCC(C)C)C3=O` the emission maximum (in C1CCOC1) was 505 nm.

`CCCCCCCCCCOc1cc(OCCCCCCCCCC)cc(C2=C3C(/C=C/c4ccc(OC)cc4)=CC(/C=C/c4ccc(OC)cc4)=[N+]3[B-](F)(F)n3c(/C=C/c4ccc(OC)cc4)cc(C=Cc4ccc(OC)cc4)c32)c1` showed an emission maximum (in ClC(Cl)Cl) of 710 nm.

Compound `CCCCCCC1(CCCCCC)c2cc(-c3nc(-c4ccc5c(c4)C(CCCCCC)(CCCCCC)c4cc(N6c7ccccc7Oc7ccccc76)ccc4-5)nc(-c4ccc5c(c4)C(CCCCCC)(CCCCCC)c4cc(N6c7ccccc7Oc7ccccc76)ccc4-5)n3)ccc2-c2ccc(N3c4ccccc4Oc4ccccc43)cc21` has an emission maximum (in C1CCOC1) of 616 nm, an emission maximum (in CCCCCC) of 485 nm and an emission maximum (in Cc1ccccc1) of 525 nm. It also gave an emission maximum (in ClCCl) of 621 nm.

Work on `COC(=O)[C@H](Cc1ccccc1)Nc1c(C(C)=O)c(=O)oc2cc(N(C)C)ccc12` yielded an emission maximum (in ClCCl) of 449 nm.

Compound `CCC1(CC)c2ccccc2-c2c1c1c(c3c2C(CC)(CC)c2cc(B(c4c(C)cc(C)cc4C)c4c(C)cc(C)cc4C)ccc2-3)C(CC)(CC)c2ccccc2-1` has an emission maximum (in C1CCOC1) of 385 nm, an emission maximum (in CC#N) of 404 nm and an emission maximum (in CC(C)=O) of 395 nm. For the same compound, the emission maximum (in CCCCCC) was 372 nm and the emission maximum (in ClC(Cl)Cl) was 387 nm.

`COc1c2ccccc2c(OC)c2c(C#C[Si](C(C)C)(C(C)C)C(C)C)c3cc4ccccc4cc3c(C#C[Si](C(C)C)(C(C)C)C(C)C)c12` showed an emission maximum (in ClCCl) of 712 nm.

Compound `CNc1ncc2nc(C(=O)OC)n(Cc3ccccc3)c2n1` has an emission maximum (in C1COCCO1) of 405 nm, an emission maximum (in CC#N) of 413 nm and an emission maximum (in CO) of 429 nm. It also gave an emission maximum (in ClCCl) of 403 nm.

With `CCCC1(CCC)c2cc(-c3ccc(C(C)(C)C)cc3)ccc2-c2ccc(-c3ccc4c(c3)C(CCC)(CCC)c3cc(-c5ccc(C(C)(C)C)cc5)ccc3-4)cc21` the emission maximum (in C1CCCCC1) was 395 nm.

For `Cc1ccc(-c2cc(-c3ccccc3)c3c(N)nc(N4CCCC4)c(C#N)c3n2)cc1`, the emission maximum (in CC#N) was 528 nm, the emission maximum (in CC(C)=O) was 524 nm and the emission maximum (in CC(C)O) was 518 nm. It also gave an emission maximum (in CO) of 527 nm, an emission maximum (in ClC(Cl)Cl) of 510 nm and an emission maximum (in ClCCl) of 517 nm. The emission maximum (in c1ccccc1) was 504 nm.

In the case of `COC(=O)c1ccc(/C=C2\C=C(c3ccccc3)OC2=O)cc1`, the emission maximum (in C1COCCO1) was 495 nm.

`Cc1c2ccncc2c(C)c2c1[nH]c1ccccc12` gave an emission maximum (in C1CCCCC1) of 392 nm, an emission maximum (in C1CCOC1) of 413 nm and an emission maximum (in C1COCCO1) of 410 nm. The emission maximum (in CC#N) was 420 nm, the emission maximum (in CC(C)(C)O) was 420 nm and the emission maximum (in CC(C)O) was 424 nm. It also gave an emission maximum (in CCC(C)(C)O) of 419 nm, an emission maximum (in CCCCCC) of 390 nm and an emission maximum (in CCCCO) of 427 nm. It also gave an emission maximum (in CCO) of 429 nm, an emission maximum (in CCOC(C)=O) of 410 nm and an emission maximum (in CCOCC) of 405 nm. The emission maximum (in CN(C)C=O) was 425 nm, the emission maximum (in CO) was 434 nm and the emission maximum (in CS(C)=O) was 428 nm. The emission maximum (in Cc1ccccc1) was 403 nm.

`N#C/C(=C\c1ccc(Cl)cc1)c1nc2ccccc2s1` gave an emission maximum (in C1CCCCC1) of 390 nm and an emission maximum (in CO) of 430 nm.

Work on `c1ccc2nc3cccc(-c4ccc(-n5c6ccccc6c6ccccc65)cc4)c3cc2c1` yielded an emission maximum (in C1CCOC1) of 466 nm, an emission maximum (in CC#N) of 527 nm and an emission maximum (in CC(C)=O) of 497 nm. It also gave an emission maximum (in CC(C)OC(C)C) of 444 nm, an emission maximum (in CCCCCC) of 434 nm and an emission maximum (in CCCCOCCCC) of 442 nm. The emission maximum (in CCOC(C)=O) was 460 nm, the emission maximum (in CCOCC) was 443 nm and the emission maximum (in ClCCl) was 486 nm.

With `CN(C)c1ccc(-c2cc(-c3ccc4ccccc4c3)nc(-c3ccccc3)n2)cc1` the emission maximum (in C1CCCCC1) was 422 nm, the emission maximum (in CS(C)=O) was 599 nm and the emission maximum (in ClC(Cl)Cl) was 510 nm.

In the case of `Cc1cc(C)c([B-]2(c3c(C)cc(C)cc3C)[O+]=P(c3ccccc3)(c3ccccc3)c3ccsc3-c3sccc32)c(C)c1`, the emission maximum (in C1CCOC1) was 429 nm.

For `c1ccc2c(c1)c1ccccc1c1ncncc21`, the emission maximum (in ClCCl) was 368 nm.

`ClP1(Cl)=NP(Cl)(Cl)=NP(Cl)(Oc2ccc3ccc4cccc5ccc2c3c45)=N1` (configuration not stated) gave an emission maximum (in ClCCl) of 417 nm.

With `c1ccc(-c2c3ccc(=[N+]4CCCCC4)cc-3oc3cc(N4CCCCC4)ccc23)cc1` the emission maximum (in CCO) was 588 nm and the emission maximum (in ClCCl) was 585 nm.

With `N#Cc1ccc(Oc2ccc3c4c(cccc24)C(=O)N(CCO)C3=O)cc1` the emission maximum (in ClC(Cl)Cl) was 413 nm.

In the case of `CCOc1ccc(/C=C/C=C/C=C/c2ccc([N+](=O)[O-])cc2)cc1`, the emission maximum (in CC1CCCCC1) was 488 nm, the emission maximum (in CC#N) was 740 nm and the emission maximum (in Cc1ccccc1) was 541 nm. It also gave an emission maximum (in ClCCl) of 694 nm.

Work on `Cc1cccc2cc(-c3cc4cccc(C)c4oc3=O)oc12` yielded an emission maximum (in CC#N) of 451 nm, an emission maximum (in CCOC(C)=O) of 436 nm and an emission maximum (in CS(C)=O) of 456 nm. The emission maximum (in Cc1ccccc1) was 436 nm and the emission maximum (in O) was 488 nm.

For `COc1ccc(C#Cc2nc3ccccc3nc2-c2ccn(-c3ccccc3)c2)cc1`, the emission maximum (in ClCCl) was 474 nm.
